Experimental data as given in ChEMBL document CHEMBL3421589, “Regioselective chemical and rapid enzymatic synthesis of a novel redox – Antiproliferative molecular hybrid” (Eur J Med Chem, 2015).
Active and inactive are the calls of the source. The calls are words filed in the database; no cut-off is given here.

How the values were obtained:
A549 [1] = test: Cytotoxicity against human A549 cells assessed as dose reduction index ratio treated at simultaneous combination at 0.6 fraction inhibition after 48 hrs by SRB assay in presence of alpha-lipoic acid; format: functional
MRC5 [2] = test: Cytotoxicity against human MRC5 cells treated at LA + compound sequent. LA for 24 hrs), LA + GEM (24 hrs additional, total 48 hrs) 5:1 alpha-lipoic acid to compound ratio after 48 hrs by SRB assay in presence of alpha-lipoic acid; format: functional, cell-based
A549 [3] = test: Cytotoxicity against human A549 cells assessed as dose reduction index ratio treated at sequential combination at 5:1 alpha-lipoic acid to compound ratio after 48 hrs by SRB assay in presence of alpha-lipoic acid; format: functional
A549 [4] = test: Induction of H2O2 level in human A549 cells at 1 uM after 5 to 30 mins by flow cytometry; format: functional, cell-based
A549 [5] = test: Cytotoxicity against human A549 cells assessed as inhibition fraction treated at 2:1 alpha-lipoic acid to compound ratio after 48 hrs by SRB assay in presence of alpha-lipoic acid; format: functional
MRC5 [6] = test: Cytotoxicity against human MRC5 cells assessed as dose reduction index ratio treated at sequential combination at 5:1 alpha-lipoic acid to compound ratio after 48 hrs by SRB assay in presence of alpha-lipoic acid; format: functional
A549 [7] = test: Cytotoxicity against human A549 cells assessed as inhibition fraction treated at 5:1 alpha-lipoic acid to compound ratio after 48 hrs by SRB assay in presence of alpha-lipoic acid; format: functional
A549 [8] = test: Cytotoxicity against human A549 cells treated at 2:1 and 5:1 alpha-lipoic acid to compound ratio after 48 hrs by SRB assay in presence of alpha-lipoic acid; format: functional, cell-based; details: A549, 48 h
MRC5 [9] = test: Cytotoxicity against human MRC5 cells assessed as dose reduction index ratio treated at simultaneous combination at 5:1 alpha-lipoic acid to compound ratio after 48 hrs by SRB assay in presence of alpha-lipoic acid; format: functional
[10] = Cytotoxicity against human T24 cells treated at 2:1 and 5:1 alpha-lipoic acid to compound ratio after 48 hrs by SRB assay in presence of alpha-lipoic acid; format: functional, cell-based; details: T-24, 48 h
MRC5 [11] = test: Cytotoxicity against human MRC5 cells assessed as dose reduction index ratio treated at sequential combination at 2:1 alpha-lipoic acid to compound ratio after 48 hrs by SRB assay in presence of alpha-lipoic acid; format: functional
[12] = Cytotoxicity against human T24 cells treated at LA + compound sequent. compound for 24 hrs, LA + compound for 24 hrs additional, total 48 hrs 2:1 and 5:1 alpha-lipoic acid to compound ratio after 48 hrs by SRB assay in presence of alpha-lipoic acid; format: functional, cell-based; details: T-24
A549 [13] = test: Cytotoxicity against human A549 cells assessed as combination index treated at 5:1 alpha-lipoic acid to compound ratio after 48 hrs by SRB assay in presence of alpha-lipoic acid; format: functional
[14] = Cytotoxicity against human T24 cells treated at LA + compound sequent. LA for 24 hrs), LA + GEM (24 hrs additional, total 48 hrs) 2:1 alpha-lipoic acid to compound ratio after 48 hrs by SRB assay in presence of alpha-lipoic acid; format: functional, cell-based; details: T-24
A549 [15] = test: Cytotoxicity against human A549 cells assessed as dose reduction index ratio treated at sequential combination at 2:1 alpha-lipoic acid to compound ratio after 48 hrs by SRB assay in presence of alpha-lipoic acid; format: functional
[16] = Cytotoxicity against human T24 cells treated at LA + compound sequent. LA for 24 hrs), LA + GEM (24 hrs additional, total 48 hrs) 5:1 alpha-lipoic acid to compound ratio after 48 hrs by SRB assay in presence of alpha-lipoic acid; format: functional, cell-based; details: T-24
A549 [17] = test: Cytotoxicity against human A549 cells assessed as dose reduction index ratio treated at simultaneous combination at 5:1 alpha-lipoic acid to compound ratio after 48 hrs by SRB assay in presence of alpha-lipoic acid; format: functional
MRC5 [18] = test: Cytotoxicity against human MRC5 cells after 48 hrs by SRB assay; format: functional, cell-based; details: for IC50: MRC5, 48 h
A549 [19] = test: Cytotoxicity against human A549 cells treated at LA + compound sequent. LA for 24 hrs), LA + GEM (24 hrs additional, total 48 hrs) 5:1 alpha-lipoic acid to compound ratio after 48 hrs by SRB assay in presence of alpha-lipoic acid; format: functional, cell-based
A549 [20] = test: (§1) Cytotoxicity against human A549 cells assessed as combination index treated at sequential combination LA + compound sequent. compound for 24 hrs, LA + compound for 24 hrs additional, total 48 hrs 2:1 and 5:1 alpha-lipoic acid to compound ratio after 48 hrs by SRB assay in presence of alpha-lipoic acid; format: functional
A549 [21] = test: Cytotoxicity against human A549 cells treated at LA + compound sequent. LA for 24 hrs), LA + GEM (24 hrs additional, total 48 hrs) 2:1 alpha-lipoic acid to compound ratio after 48 hrs by SRB assay in presence of alpha-lipoic acid; format: functional, cell-based
A549 [22] = test: Cytotoxicity against human A549 cells treated at LA + compound sequent. compound for 24 hrs, LA + compound for 24 hrs additional, total 48 hrs 2:1 and 5:1 alpha-lipoic acid to compound ratio after 48 hrs by SRB assay in presence of alpha-lipoic acid; format: functional, cell-based
MRC5 [23] = test: Cytotoxicity against human MRC5 cells treated at 2:1 and 5:1 alpha-lipoic acid to compound ratio after 48 hrs by SRB assay in presence of alpha-lipoic acid; format: functional, cell-based; details: MRC5, 48 h
MRC5 [24] = test: Cytotoxicity against human MRC5 cells treated at LA + compound sequent. LA for 24 hrs), LA + GEM (24 hrs additional, total 48 hrs) 2:1 alpha-lipoic acid to compound ratio after 48 hrs by SRB assay in presence of alpha-lipoic acid; format: functional, cell-based
[25] = (§2) Cytotoxicity against human T24 cells after 48 hrs by SRB assay; format: functional, cell-based; details: T-24, 48 h
T-24 [26] = test: as §2; format: functional, cell-based
A549 [27] = test: as §1, with “inhibition fraction” for “combination index”; format: functional
A549 [28] = test: Cytotoxicity against human A549 cells after 48 hrs by SRB assay; format: functional, cell-based; details: for IC50: A549, 48 h
A549 [29] = test: Cytotoxicity against human A549 cells assessed as combination index treated at 2:1 alpha-lipoic acid to compound ratio after 48 hrs by SRB assay in presence of alpha-lipoic acid; format: functional
MRC5 [30] = test: Cytotoxicity against human MRC5 cells assessed as dose reduction index ratio treated at simultaneous combination at 2:1 alpha-lipoic acid to compound ratio after 48 hrs by SRB assay in presence of alpha-lipoic acid; format: functional
MRC5 [31] = test: Cytotoxicity against human MRC5 cells treated at LA + compound sequent. compound for 24 hrs, LA + compound for 24 hrs additional, total 48 hrs 2:1 and 5:1 alpha-lipoic acid to compound ratio after 48 hrs by SRB assay in presence of alpha-lipoic acid; format: functional, cell-based
A549 [32] = test: Induction of H2O2 level in human A549 cells at 1 uM after 30 mins by flow cytometry; format: functional, cell-based
T-24 [33] = test: Ratio of Gemcitabine IC50 to Compound IC50 for human T24 cells after 48 hrs by SRB assay; format: functional
A549 [34] = test: Ratio of Gemcitabine IC50 to Compound IC50 for human A549 cells after 48 hrs by SRB assay; format: functional
MRC5 [35] = test: Ratio of Gemcitabine IC50 to Compound IC50 for human MRC5 cells after 48 hrs by SRB assay; format: functional
A549 [36] = test: Cytotoxicity against human A549 cells assessed as dose reduction index ratio treated at sequential combination at 2:1 compound to GEM ratio after 48 hrs by SRB assay in presence of GEM; format: functional
A549 [37] = test: Cytotoxicity against human A549 cells assessed as inhibition fraction treated at sequential combination LA + compound sequent. compound for 24 hrs, LA + compound for 24 hrs additional, total 48 hrs 2:1 and 5:1 compound to GEM ratio after 48 hrs by SRB assay in presence of GEM; format: functional
A549 [38] = test: Cytotoxicity against human A549 cells assessed as dose reduction index ratio treated at simultaneous combination at 0.8 fraction inhibition after 48 hrs by SRB assay in presence of alpha-lipoic acid; format: functional
A549 [39] = test: Cytotoxicity against human A549 cells assessed as inhibition fraction treated at 5:1 compound to GEM ratio after 48 hrs by SRB assay in presence of GEM; format: functional
A549 [40] = test: Cytotoxicity against human A549 cells assessed as inhibition fraction treated at 2:1 compound to GEM ratio after 48 hrs by SRB assay in presence of GEM; format: functional
A549 [41] = test: Induction of H2O2 level in human A549 cells at 1 uM after 5 mins by flow cytometry; format: functional, cell-based
A549 [42] = test: Cytotoxicity against human A549 cells assessed as dose reduction index ratio treated at sequential combination at 5:1 compound to GEM ratio after 48 hrs by SRB assay in presence of GEM; format: functional

Nc1ccn([C@@H]2O[C@H](CO)[C@@H](O)C2(F)F)c(=O)n1 [GEMCITABINE]
Inhibition_index (A549 [1]): 5.76
IC50 (MRC5 [2]): 6.8 nM
Inhibition_index (A549 [3]): 1.67
Activity (A549 [4]): inactive
Ratio (A549 [5]): 0.6
CI (MRC5 [6]): 2.73
Ratio (A549 [7]): 0.1
IC50 (A549 [8]): < 3.9 nM
CI (MRC5 [9]): 7.88
IC50 [10]: < 3.9 nM
CI (MRC5 [11]): 2.06
IC50 [12]: < 3.9 nM
CI (A549 [13]): >1
IC50 [14]: 18 nM
Inhibition_index (A549 [15]): 1.71
IC50 [16]: 17 nM
Inhibition_index (A549 [17]): 4.22
inhibition (MRC5 [18]): Dose-dependent effect
IC50 (MRC5 [18]): 6.3 nM
IC50 (A549 [19]): > 1000 nM
CI (A549 [20]): >1
IC50 (A549 [21]): 29 nM
IC50 (A549 [22]): 3.9 nM
IC50 (MRC5 [23]): < 3.9 nM
IC50 (MRC5 [24]): 21.6 nM
IC50 [25]: 6.9 nM
inhibition (T-24 [26]): Dose-dependent effect
Ratio (A549 [27]): 0.65
inhibition (A549 [28]): Dose-dependent effect
IC50 (A549 [28]): 6.8 nM
CI (A549 [29]): <1
CI (MRC5 [30]): 8.15
IC50 (MRC5 [31]): < 3.9 nM

Nc1ccn([C@@H]2O[C@H](COC(=O)CCCC[C@@H]3CCSS3)[C@@H](O)C2(F)F)c(=O)n1
Activity (A549 [32]): Active
Ratio (T-24 [33]): 1.3
inhibition (MRC5 [18]): Dose-dependent effect
IC50 (MRC5 [18]): 5 nM
IC50 [25]: 5.3 nM
inhibition (T-24 [26]): Dose-dependent effect
Ratio (A549 [34]): 1.54
inhibition (A549 [28]): Dose-dependent effect
IC50 (A549 [28]): < 4.4 nM
Ratio (MRC5 [35]): 1.24

O=C(O)CCCCC1CCSS1 (stereo not drawn) [LIPOIC ACID, ALPHA]
Inhibition_index (A549 [36]): 1243.87
Ratio (A549 [37]): 0.85
Inhibition_index (A549 [38]): 1572.29
Ratio (A549 [39]): 0.9
Ratio (A549 [40]): 0.8
inhibition (MRC5 [18]): Dose-dependent effect
IC50 (MRC5 [18]): > 100000 nM
IC50 [25]: > 100000 nM
inhibition (T-24 [26]): Dose-dependent effect
inhibition (A549 [28]): Dose-dependent effect
IC50 (A549 [28]): > 100000 nM
Activity (A549 [41]): Active
Inhibition_index (A549 [42]): 488.47
